Data reported in US20200020099A1, “INFORMATION PROCESSING DEVICE, INFORMATION PROCESSING SYSTEM, AND INFORMATION PROCESSING METHOD” (SONY CORPORATION, priority 2017, published 2020).

Experiments:
HL60 cell [1] = test: Quantification of morphological change (area change amount, peripheral length change amount) from phase difference moving images; assay type: cell-based
Text: An image (moving image) of an HL60 cell that had been differentiated and stimulated by adding 1% DMSO and performing culture for one week was imaged over time with a phase difference microscope under conditions that magnification of an objective lens was 60 times, an imaging interval was 27 frames/second, and imaging time was 60 seconds. FIG. 5 is an image illustrating cell boundary recognition and tracking according to Example 1. […] Thereafter, the cell boundary was tracked by matching the drawn solid line to a next image. Then, a cell area in the continuous image was tracked by repeating matching to the continuous image.
Thereafter, the area and the peripheral length were calculated from the tracked cell area, and an average of the areas, an average of the peripheral lengths, and change amounts thereof in the continuous image were calculated. Then, the change amount with respect to the average of the areas or peripheral lengths was calculated as the morphological change amount (area change amount and peripheral length change amount). This was used as Control. By a similar method, as for a case where 100 μM of a mitochondrial […] agent, carbonyl cyanide m-chlorophenylhydrazone (also simply referred to as “CCCP” here), which is a drug that inhibits intracellular metabolism, was added, the morphological change amount was calculated similarly. The upper drawing of FIG. 6 is a drawing-substituting graph illustrating an area change amount and a peripheral length change amount according to Example 1, and the lower drawing of FIG. 6 is an image illustrating cell boundary recognition and tracking in Control and in a case where CCCP is added according to Example 1.

HL60 cell [2] = test: Motion amount of the intracellular structure (motion vector analysis) from moving images; assay type: cell-based; details: concentrations of 0.01 μM, 0.1 μM, 1 μM, and 10 μM, FIG. 7
Text: More specifically, the analysis unit 121 extracts a motion vector between at least two imaged images having different imaging times. For example, the analysis unit 121 can extract a motion vector from a range designated by a user using a […], a gradient method, or the like. Note that the analysis unit 121 may extract a motion vector from the entire imaged image.
The length of a motion vector is a motion amount. The analysis unit 121 can calculate a motion amount (motion speed) of an intracellular structure per unit time from an interval (time) of the two imaged images from which the motion vector has been extracted. Note that in the present technology, the motion amount of the intracellular structure can be determined using an average value, a median value, a maximum value, a standard deviation, and the like of the lengths of the motion vectors.
By a similar method to Example 1 described above, the morphological change amounts (area change amounts and peripheral length change amounts) in a case where CCCP was added at concentrations of 0.01 μM, 0.1 μM, 1 μM, and 10 μM were calculated, respectively. Furthermore, a motion vector under similar conditions was calculated at an interval of about 1 μm, and a spatiotemporal average of the motion amounts (motion speeds) per unit time for each cell was calculated to create a color map. […]

[3] = 100 μM added, differentiated HL60 cell (1% DMSO, one week), vs Control, FIG. 6
[4] = concentrations of 0.01 μM, 0.1 μM, 1 μM, and 10 μM, HL60 cell, FIG. 7
[5] = 200 nM added, HL60 cell, vs Control, FIG. 10

Compound	area change amount (HL60 cell [1]; [3])	peripheral length change amount (HL60 cell [1]; [3])	area change amount (HL60 cell [1]; [4])	peripheral length change amount (HL60 cell [1]; [4])	motion amount (vector analysis) of the intracellular structure (HL60 cell [2])	area change amount (HL60 cell [1]; [5])	peripheral length change amount (HL60 cell [1]; [5])
N#CC(C#N)=NNc1cccc(Cl)c1 [CCCP, carbonyl cyanide m-chlorophenylhydrazone]	significant decrease	significant decrease	concentration-dependent decrease	concentration-dependent decrease	concentration-dependent decrease	–	–
C=C1[C@@H](C)[C@H]2[C@H](Cc3ccccc3)NC(=O)[C@]23[C@H](OC(C)=O)/C=C/[C@@](C)(O)C(=O)[C@@H](C)C/C=C/[C@H]3[C@@H]1O [Cytochalasin D]	–	–	–	–	–	significant decrease	significant decrease
